One compound from patent publication US20070111889A1, “6-(Aminocarbonyl-phenyl)triazolopyrimidines, methods for the production thereof, use thereof for controlling harmful fungi, and substances containing the same” (BASF Aktiengesellschaft, priority 2003, published 2007) can be followed below.

Each structure is given as a SMILES string.

The test system of one assay is Pyrenophora teres. Nature of the assay: Activity against net blotch of barley caused by Pyrenophora teres (protective spray, barley seedlings). The assay is classed as in vivo, Pyrenophora [syn. Drechslera] teres. The following applies: 63 ppm; barley cultivar Hanna; inoculated 24 h after spraying; assessed visually after 6 days; untreated plants 90% infected. As to the method:
The active compounds were prepared as a stock solution with 0.25% by weight of active compound in acetone or DMSO. 1% by weight of the emulsifier Uniperol® EL (wetting agent having emulsifying and dispersing action based on ethoxylated alkylphenols) was added to this solution, and the mixture was diluted with water to the desired concentration. Leaves of pot-grown barley seedlings of the cultivar “Hanna” were sprayed to runoff point with an aqueous suspensiori having the concentration of active compound stated below. 24 hours after the spray coating had dried on, the test plants were inoculated with an aqueous spore suspension of Pyrenophora [syn. Drechslera] teres, the causative agent of net blotch. The test plants were subsequently placed in a greenhouse at temperatures of between 20 and 24° C. and at a relative atmospheric humidity of 95 to 100%. After 6 days, the extent of the development of the disease was determined visually in % of infection of the total leaf area.

For a further assay, the system named is Plasmopara viticola. Nature of the assay: Activity against Peronospora of vines caused by Plasmopara viticola (protective spray, potted vines). The assay is classed as in vivo. The following applies: 250 ppm; vines cultivar Riesling; inoculated the day after spraying; assessed visually; untreated plants 90% infected. As for the experimental part: The active compounds were prepared as a stock solution with 0.25% by weight of active compound in acetone or DMSO. 1% by weight of the emulsifier Uniperol® EL (wetting agent having emulsifying and dispersing action based on ethoxylated alkylphenols) was added to this solution, and the mixture was diluted with water to the desired concentration.
Leaves of potted vines of the cultivar “Riesling” were sprayed to runoff point with an aqueous suspension having the concentration of active compounds stated below. The next day, the undersides of the leaves were inoculated with an aqueous zoospore suspension of Plasmopara viticola. The vines were then initially placed in a water-vapor-saturated chamber at 24° C. for 48 hours and then in a greenhouse at temperatures of between 20 and 30° C. for 5 days. After this time, the plants were again placed in a moist chamber for 16 hours to promote sporangiophore eruption. The extent of the development of the infection on the undersides of the leaves was then determined visually.

Turning to `CC1CCN(c2c(-c3c(F)cc(C(N)=O)cc3F)c(Cl)nc3ncnn23)CC1` [I-1, 5-chloro-6-(2,6-difluoro-4-aminocarbonylphenyl)-7-(4-methylpiperidin-1-yl)-[1,2,4]-triazolo[1,5-a]pyrimidine], in the assay with Pyrenophora teres, the “infection (% of infection of the total leaf area)” value is on record as “about 3%”. The “infection on the undersides of the leaves” value in the assay with Plasmopara viticola is given as “no infection”.
